The source of these data is USRE47689E1, “Compounds for treating spinal muscular atrophy” (PTC Therapeutics, Inc., priority 2011, dated 2019).

Read-outs that look alike come from different tables or passages of the source. A value given as a limit tells only on which side of the number the result lay.

The test system of one data set is Smn protein. The data set is described as follows: Smn protein assay in cultured cells (SMN HTRF). The format is cell-based, human. To be noted: 48 hours; for maximum fold (Fold) increase of Smn protein: SMA patient fibroblast cells, 7-point concentration data, fold increase relative to vehicle control (SMN HTRF); for EC1.5x (concentration giving 1.5-fold Smn protein increase): SMA Type 1 patient fibroblast cells (GM03813), 7-point concentration curve, SMN HTRF, concentration producing 1.5 times Smn protein vs DMSO vehicle control, read-out: EC1.5x for Smn protein expression. In short, it runs like this:
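Lysates in RIPA with protease inhibitors are incubated overnight at room temperature with HTRF anti-SMN antibodies. EC1.5x is derived from fold increase in ΔF over vehicle.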

The subject of data set [1] is SMN2 minigene (full length SMN2 minigene mRNA containing SMN2 exon 7). Kind of data set: SMN2 minigene mRNA splicing RT-qPCR assay in cultured cells. To be noted: Homo sapiens, HEK293-H, read-out: EC1.5x for production of full length SMN2 mRNA. The format is cell-based, human. In short, it runs like this:
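HEK293H cells stably carrying the SMN2-A minigene treated 24 h at 37° C with compound (DMSO, 200× stock), then lysed. Multiplex RT-qPCR (SMN primers 0.4 μM final; 40 cycles) measures full-length exon 7-containing minigene mRNA, normalized to GAPDH and to vehicle; EC1.5x derived and binned by stars.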
(In general: In qPCR the cycle at which signal appears reflects the starting amount.)

Setting [2] is: HEK293H cells stably transfected with SMN2-A minigene, 24 hours, 7-point concentration curve, 1.5-fold relative to vehicle-treated cells.

Take `O=c1oc2cc(N3CCNCC3)ccc2cc1-c1ccc(F)c(Cl)c1` [Compound 484, 3-(3-chloro-4-fluorophenyl)-7-(piperazin-1-yl)-2H-chromen-2-one]: the melting point lay in the range of 186 to 188 °C. For the same compound, in the data set on Smn protein, the “maximum fold (Fold) increase of Smn protein” value (“maximum fold (Fold) increase” for short) is reported as “* (maximum fold increase of ≤1.2)”. Besides, the EC (1.5-fold) in data set [1] (setting [2]) was 0.3 to 1 µM.

Turning to `Cc1ccn2cc(-c3cc4ccc(NC5CCN(C)CC5)cc4oc3=O)nc2c1` [Compound 474, 3-(7-methylimidazo[1,2-a]pyridin-2-yl)-7-[(1-methylpiperidin-4-yl)amino]-2H-chromen-2-one], the melting point was 224 to 230 °C. For the same compound, the “maximum fold (Fold) increase” value with Smn protein is “* (maximum fold increase of ≤1.2)”. For the same compound, the EC (1.5-fold) in data set [1] (setting [2]) was 1 to 3 µM.

Take `Cc1nn2cc(-c3cc4ccc(N5CCN[C@H](C)C5)cc4oc3=O)nc2s1` [Compound 483, 3-(2-methylimidazo[2,1-b][1,3,4]thiadiazol-6-yl)-7-[(3R)-3-methylpiperazin-1-yl]-2H-chromen-2-one]: the melting point lay within 206 to 210 °C. In the data set with Smn protein, the EC1.5x (concentration giving 1.5-fold Smn protein increase) was 1000 to 3000 nM; the “maximum fold (Fold) increase” value is “*** (fold increase between >1.35 and ≤1.5)”. Moreover, the EC (1.5-fold) in data set [1] (setting [2]) lay in the range of 0.1 to 0.3 µM.

Compound `Cn1cc(-c2cc3ccc(N4CCNCC4)cc3oc2=O)c2ccccc21` [Compound 258, 3-(1-methyl-1H-indol-3-yl)-7-(piperazin-1-yl)-2H-chromen-2-one] displayed a melting point of 201 to 203 °C. For the same compound, the “maximum fold (Fold) increase” value in the data set on Smn protein is listed as “* (maximum fold increase of ≤1.2)”. Moreover, the EC (1.5-fold) in data set [1] (setting [2]) was in the range of 0.3 to 1 µM.

In turn, `C[C@@H]1CN(c2ccc3cc(-c4cc5cnccc5s4)c(=O)oc3c2)C[C@H](C)N1` [Cpd 630, 7-[(3R,5S)-3,5-dimethylpiperazin-1-yl]-3-(thieno[3,2-c]pyridin-2-yl)-2H-chromen-2-one] registered a melting point of 163 to 165 °C. Besides, the “maximum fold (Fold) increase” value with Smn protein is “* (maximum fold increase of ≤1.2)”. Further, in data set [1] (setting [2]), the EC (1.5-fold) was in the range of 0.3 to 1 µM.

For `CSc1nccn2cc(-c3cc4ccc(N5C[C@@H](C)N[C@@H](C)C5)cc4oc3=O)nc12` [Compound 400, 7-[(3R,5S)-3,5-dimethylpiperazin-1-yl]-3-[8-(methylsulfanyl)imidazo[1,2-a]pyrazin-2-yl]-2H-chromen-2-one], the melting point was 283 to 285 °C. For the same compound, the “maximum fold (Fold) increase” value with Smn protein is “* (maximum fold increase of ≤1.2)”. Besides, the EC (1.5-fold) in data set [1] (setting [2]) fell in the range of 3 to 30 µM.

`Cc1cn2cc(-c3cc4ccc(CN5CCNCC5)cc4oc3=O)nc2c(C)n1` [Compound 848, 3-(6,8-dimethylimidazo[1,2-a]pyrazin-2-yl)-7-(piperazin-1-ylmethyl)-2H-chromen-2-one] returned a melting point of 189 to 195 °C. Moreover, in the data set with Smn protein, the EC1.5x (concentration giving 1.5-fold Smn protein increase) was 300 to 1000 nM and the “maximum fold (Fold) increase” value is on record as “***** (fold increase >1.65)”. Moreover, the EC (1.5-fold) in data set [1] (setting [2]) is under 0.1 µM.

As for `Cc1ccc2nc(-c3cc4ccc(N5CCN(C)CC5)cc4oc3=O)cn2c1` [Compound 81, 3-(6-methylimidazo[1,2-a]pyridin-2-yl)-7-(4-methylpiperazin-1-yl)-2H-chromen-2-one], the melting point was 267 °C (dec.). Besides, in the data set with Smn protein, the EC1.5x (concentration giving 1.5-fold Smn protein increase) lay within 3000 to 10000 nM; the “maximum fold (Fold) increase” value was “*** (fold increase between >1.35 and ≤1.5)”. In data set [1] (setting [2]), the EC (1.5-fold) was 0.3 to 1 µM.

Take `O=c1oc2cc(N3CCNCC3)ccc2cc1-c1ccncc1` [Compound 27, 7-(piperazin-1-yl)-3-(pyridin-4-yl)-2H-chromen-2-one]: the melting point was 212 to 214 °C. Also, the “maximum fold (Fold) increase” value in the data set with Smn protein is given as “* (maximum fold increase of ≤1.2)”. Also, the EC (1.5-fold) in data set [1] (24 h) was 1 to 3 µM.

As to `Cc1cccn2cc(-c3cc4ccc(N5CCCNCC5)cc4oc3=O)nc12` [Compound 281, 7-(1,4-diazepan-1-yl)-3-(8-methylimidazo[1,2-a]pyridin-2-yl)-2H-chromen-2-one], the melting point lay within 138 to 140 °C. The “maximum fold (Fold) increase” value with Smn protein was “** (fold increase between >1.2 and ≤1.35)”. Also, the EC (1.5-fold) in data set [1] (setting [2]) is 0.3 to 1 µM.

The compound `Cc1cn2cc(-c3cc4ccc(C5CCN(C(C)C)CC5)cc4oc3=O)nc2c(C)n1` [Cpd 773, 3-(6,8-dimethylimidazo[1,2-a]pyrazin-2-yl)-7-[1-(propan-2-yl)piperidin-4-yl]-2H-chromen-2-one] had a melting point of 206 to 211 °C. In addition, in the data set with Smn protein, the EC1.5x (concentration giving 1.5-fold Smn protein increase) was under 300 nM; the “maximum fold (Fold) increase” value is “**** (fold increase between >1.5 and ≤1.65)”. The EC (1.5-fold) in data set [1] (setting [2]) was under 0.1 µM.

`Cc1cc(F)c2nc(-c3cc4ccc(N5CCN(C)[C@H](C)C5)cc4oc3=O)cn2c1` [Compound 533, 7-[(3R)-3,4-dimethylpiperazin-1-yl]-3-(8-fluoro-6-methylimidazo[1,2-a]pyridin-2-yl)-2H-chromen-2-one] gave a melting point of 269 to 277 °C. For the same compound, in the data set with Smn protein, the EC1.5x (concentration giving 1.5-fold Smn protein increase) is under 300 nM; the “maximum fold (Fold) increase” value was “**** (fold increase between >1.5 and ≤1.65)”. The EC (1.5-fold) in data set [1] (setting [2]) is under 0.1 µM.

Consider `CN(CCO)Cc1ccc2cc(-c3cn4ccsc4n3)c(=O)oc2c1` [Compound 345, 7-{[(2-hydroxyethyl)(methyl)amino]methyl}-3-(imidazo[2,1-b][1,3]thiazol-6-yl)-2H-chromen-2-one], for which the melting point lay within 145 to 148 °C. In addition, in the data set on Smn protein, the EC1.5x (concentration giving 1.5-fold Smn protein increase) is 3000 to 10000 nM; the “maximum fold (Fold) increase” value is “*** (fold increase between >1.35 and ≤1.5)”. Moreover, the EC (1.5-fold) in data set [1] (setting [2]) is 1 to 3 µM.

Compound `COc1ccc(-c2cc3ccc(N4CCN[C@H](C)C4)cc3oc2=O)c(OC)c1` [Compound 466, 3-(2,4-dimethoxyphenyl)-7-[(3R)-3-methylpiperazin-1-yl]-2H-chromen-2-one] yielded a melting point of 101 to 103 °C. Also, the “maximum fold (Fold) increase” value in the data set with Smn protein was “* (maximum fold increase of ≤1.2)”. The EC (1.5-fold) in data set [1] (setting [2]) fell in the range of 3 to 30 µM.

`Cc1cc(C)c2nc(-c3cc4ccc(N5C[C@@H](C)N[C@@H](C)C5)cc4oc3=O)cn2c1` [Compound 262, 3-(6,8-dimethylimidazo[1,2-a]pyridin-2-yl)-7-[(3R,5S)-3,5-dimethylpiperazin-1-yl]-2H-chromen-2-one]: the melting point lay in the range of 227 to 237 °C. Besides, in the data set on Smn protein, the “maximum fold (Fold) increase” value is “** (fold increase between >1.2 and ≤1.35)”. For the same compound, the EC (1.5-fold) in data set [1] (setting [2]) lay in the range of 0.3 to 1 µM.

Compound `Cc1cn2cc(-c3cc4ccc(N5CCN6CCC[C@H]6C5)cc4oc3=O)cc2c(C)n1` [Compound 673, 3-(1,3-dimethylpyrrolo[1,2-a]pyrazin-7-yl)-7-[(8aS)-hexahydropyrrolo[1,2-a]pyrazin-2(1H)-yl]-2H-chromen-2-one] had a melting point of 169 to 173 °C. In the data set with Smn protein, the EC1.5x (concentration giving 1.5-fold Smn protein increase) was under 300 nM and the “maximum fold (Fold) increase” value is listed as “***** (fold increase >1.65)”. In addition, the EC (1.5-fold) in data set [1] (setting [2]) is under 0.1 µM.

In turn, `COc1ccc(-c2cc3ccc(N4CCNCC4)cc3oc2=O)cc1F` [Compound 544, 3-(3-fluoro-4-methoxyphenyl)-7-(piperazin-1-yl)-2H-chromen-2-one] came in with a melting point of 241 to 243 °C. Besides, the “maximum fold (Fold) increase” value in the data set on Smn protein was “** (fold increase between >1.2 and ≤1.35)”. The EC (1.5-fold) in data set [1] (setting [2]) lay within 0.1 to 0.3 µM.

As to `Cc1cn2cc(-c3cc4ccc(CCCCN(C)C)cc4oc3=O)nc2c(C)n1` [Cpd 902, 7-[4-(dimethylamino)butyl]-3-(6,8-dimethylimidazo[1,2-a]pyrazin-2-yl)-2H-chromen-2-one], the melting point was in the range of 190 to 193 °C. For the same compound, in the data set with Smn protein, the EC1.5x (concentration giving 1.5-fold Smn protein increase) was under 300 nM and the “maximum fold (Fold) increase” value was “***** (fold increase >1.65)”. In addition, in data set [1] (setting [2]), the EC (1.5-fold) is under 0.1 µM.

On to `Cc1cn2cc(-c3cc4ccc(CCN5CCOCC5)cc4oc3=O)nc2c(C)n1` [Compound 886, 3-(6,8-dimethylimidazo[1,2-a]pyrazin-2-yl)-7-[2-(morpholin-4-yl)ethyl]-2H-chromen-2-one], for which the melting point is 180 to 184 °C. In the data set with Smn protein, the EC1.5x (concentration giving 1.5-fold Smn protein increase) lay within 300 to 1000 nM and the “maximum fold (Fold) increase” value was “***** (fold increase >1.65)”. Further, the EC (1.5-fold) in data set [1] (setting [2]) lay in the range of 0.3 to 1 µM.

`Cc1ccn2cc(-c3cc4ccc(N5CCN[C@@H](C)C5)cc4oc3=O)nc2n1` [Compound 229, 3-(7-methylimidazo[1,2-a]pyrimidin-2-yl)-7-[(3S)-3-methylpiperazin-1-yl]-2H-chromen-2-one] registered a melting point of 298 to 301 °C. In addition, the “maximum fold (Fold) increase” value with Smn protein is “*** (fold increase between >1.35 and ≤1.5)”. Besides, the EC (1.5-fold) in data set [1] (setting [2]) was 0.1 to 0.3 µM.

Compound `Cc1cn2cc(-c3cc4ccc(C5CCN(CC(C)C)CC5)cc4oc3=O)nc2cn1` [Compound 916, 3-(6-methylimidazo[1,2-a]pyrazin-2-yl)-7-[1-(2-methylpropyl)piperidin-4-yl]-2H-chromen-2-one] showed a melting point of 260 to 270 °C. In the data set on Smn protein, the EC1.5x (concentration giving 1.5-fold Smn protein increase) lay within 300 to 1000 nM; the “maximum fold (Fold) increase” value is “**** (fold increase between >1.5 and ≤1.65)”. Besides, the EC (1.5-fold) in data set [1] (setting [2]) fell in the range of 0.1 to 0.3 µM.

The melting point is the temperature, or range, at which the solid turns liquid.
